Data reported in US20090258824A1, “Amyloid beta receptor and uses thereof” (priority 2005, published 2009).

System: cultured cortical neurons
Assay: Calcium imaging (Fluo-4) in cultured cortical neurons
Assay type: cell-based, rat (Sprague Dawley)
Details: antagonist co-applied with Aβ*56
Experimental: Cultured neurons. Cultures of cortical neurons from P1 Sprague Dawley rat pups were prepared according to previously published protocols (Dubinsky, J Neurosci 13, 623-631 (1993)). Dissections of cortical mantels excluded meninges, hippocampus, septal regions, and basal ganglia. […]
Size-exclusion chromatography (SEC). […] Fractions of 500 μl of eluate in 50 mM Ammonium Acetate, pH 8.5, were diluted 1:100 or 1:750 in neurophysiology experiments, or were concentrated using a vacuum system (VacuFuge™, Brinkmann-Eppendorf) and analyzed by silver staining.
Calcium imaging. […] Calcium indicator dye fluorescence was monitored with 488 nanometer (nm) excitation, a 500 nm long-pass barrier filter and confocal microscopy (Odyssey scanner, Noran, Middleton, Wis.). […] To quantify neuronal Ca^2+ responses, Ca^2+ fluorescence was measured from single neurons or clusters of neurons. Baseline fluorescence was normalized to one and the area between the curve and the baseline calculated using Origin software analysis routines (OriginLab Corporation, Northampton, Mass.).

SMILES | effect on the Aβ*56-induced increase in Ca2+ signal
O=C(O)C1CN(CCCP(=O)(O)O)CCN1 (racemic) [CPP, (+/−)-3-(2-carboxypiperazin-4-yl)-propyl-1-phosphonic acid] | completely abolished
CCC(N)(C(=O)O)c1ccc(C(=O)O)cc1 (racemic) [E4CPG, (RS)-α-Ethyl-4-carboxyphenylglycine] | failed to block
